Results: patent publication US20250066328A1, “PARP7 INHIBITORS” (Gilead Sciences, Inc., priority 2023, published 2025)

test system: STAT1 (phosphorylated at Tyr701) in NCI-H1373 cells; assay: Phospho-STAT1 (Tyr701) LANCE Ultra TR-FRET detection assay in NCI-H1373 cells; assay type: cell-based; conditions: Homo sapiens, NCI-H1373, 48 h, 48 hours incubation, induction of pSTAT1, normalized to 10 uM positive control and DMSO, 4-parameter fit, read-out: NH1373 pSTAT1 EC50
Experimental: Phospho-STAT1 (Tyr701 LANCE Ultra TR-FRET Detection Assay
LANCE Ultra phospho-STAT1 (Tyr701) kits are designed for the detection of phosphorylated STAT1 in cell lysates using a simple, homogeneous LANCE Ultra sandwich assay (Cat. #TRF4028M). This assay is intended for assessing compound induction of endogenous levels of cellular STAT1 (phosphorylated at Tyr701) in NCI-H1373 cells. The NCI-H1373 cells are cultured in RPMI 1640 media containing 10% heat inactivated FBS, GlutaMAX, 1% Penicillin-Streptomycin. An Echo acoustic liquid handler is used to transfer 60 nanoliters of compound dilutions using the Echo Qualified, 384-well polypropylene microplate clear flat bottom source plates into a Greiner (#781080) cell culture microplate. NCI-H1373 cells are seeded into these compound-spotted culture plates at 30,000 cells/well in a 60 uL volume in growth media. The plates are incubated in a 5% CO2 humidified incubator at 37° C. for 48 hours. […] Briefly, […] of supplemented lysis buffer is added to each well and allowed to shake for 1 hour at 400 rpm. Next, 5 ul of remixed antibody solutions (vol/vol) prepared in detection buffer are added to each well and allowed to incubate at room temperature overnight. After spinning the plate down at 300 rpm for 1 min, the plate is read on an EnVision plate reader set up for Eu^3+ Cryptate and fluorescence emission is measured at two different wavelengths (665 nm and 620 nm). The HTRF ratio is then calculated ([…]) for each well to determine the amount of pSTAT1 in the cell lysate, and the data is then normalized to 10 uM (S)-5-((1-(3-oxo-3-(4-(5-(trifluoromethyl)pyrimidin-2-yl)piperazin-1-yl)propoxy)propan-2-yl)amino)-4-(trifluoromethyl)pyridazin-3(2H)-one positive and DMSO negative controls. The values were then plotted as a function of compound concentration and a 4-parameter fit was applied to derive the EC50 values.

| SMILES | EC50 [nM] |
| --- | --- |
| C[C@@H](C[C@H](F)Cn1ccc2cc(-c3ncc(C(F)(F)F)cn3)c(F)cc2c1=O)Nc1cn[nH]c(=O)c1C(F)(F)F (single isomer, unassigned) [Example 3] | 11.7 |
| C[C@@H](C[C@@H](F)Cn1ccc2cc(-c3ncc(C(F)F)cn3)c(F)cc2c1=O)Nc1cn[nH]c(=O)c1C(F)(F)F (single isomer, unassigned) [Example 4] | 1.08 |
| C[C@@H](C[C@H](F)Cn1ccc2cc(-c3ncc(C(F)F)cn3)c(F)cc2c1=O)Nc1cn[nH]c(=O)c1C(F)(F)F (single isomer, unassigned) [Example 5] | 47.6 |
| COc1cnc(-c2cc3ccn(C[C@H](F)C[C@H](C)Nc4cn[nH]c(=O)c4C(F)(F)F)c(=O)c3cc2F)nc1 (single isomer, unassigned) [Example 6] | 0.809 |
| COc1cnc(-c2cc3ccn(C[C@@H](F)C[C@H](C)Nc4cn[nH]c(=O)c4C(F)(F)F)c(=O)c3cc2F)nc1 (single isomer, unassigned) [Example 7] | 152 |
| C[C@@H](C[C@@H](F)Cn1ccc2cc(-c3ncc(C(C)(C)O)cn3)c(F)cc2c1=O)Nc1cn[nH]c(=O)c1C(F)(F)F (single isomer, unassigned) [Example 8] | 3.55 |
| C[C@@H](C[C@H](F)Cn1ccc2cc(-c3ncc(C(C)(C)O)cn3)c(F)cc2c1=O)Nc1cn[nH]c(=O)c1C(F)(F)F (single isomer, unassigned) [Example 9] | 238 |
| C[C@@H](C[C@@H](F)Cn1ccc2cc(-c3ncc(C(F)F)c(N)n3)c(F)cc2c1=O)Oc1cn[nH]c(=O)c1C(F)(F)F (single isomer, unassigned) [Example 14] | 8.34 |
| C[C@@H](C[C@H](F)Cn1ccc2cc(-c3ncc(C(F)F)c(N)n3)c(F)cc2c1=O)Oc1cn[nH]c(=O)c1C(F)(F)F (single isomer, unassigned) [Example 15] | 0.786 |
| C[C@@H](C[C@@H](O)Cn1ccc2cc(-c3ncc(C(F)(F)F)cn3)c(F)cc2c1=O)Oc1cn[nH]c(=O)c1C(F)(F)F (single isomer, unassigned) [Example 17] | 23.3 |
| C[C@@H](C[C@@H](O)Cn1ccc2cc(-c3ncc(C(F)F)cn3)c(F)cc2c1=O)Oc1cn[nH]c(=O)c1C(F)(F)F (single isomer, unassigned) [Example 19] | 1.28 |
| C[C@@H](C[C@H](O)Cn1ccc2cc(-c3ncc(C(F)F)cn3)c(F)cc2c1=O)Oc1cn[nH]c(=O)c1C(F)(F)F (single isomer, unassigned) [Example 20] | 33 |
| C[C@@H](C[C@@H](O)Cn1ccc2cc(-c3nc4ccccn4n3)c(F)cc2c1=O)Nc1cn[nH]c(=O)c1C(F)(F)F (single isomer, unassigned) [Example 22] | 2.7 |
| C[C@@H](C[C@H](O)Cn1ccc2cc(-c3nc4ccccn4n3)c(F)cc2c1=O)Nc1cn[nH]c(=O)c1C(F)(F)F (single isomer, unassigned) [Example 23] | 7.18 |
| CC(C)(O)c1cnc(-c2cc3ccn(CCC[C@@H](COC(F)F)Oc4cn[nH]c(=O)c4C(F)(F)F)c(=O)c3cc2F)nc1 (single isomer, unassigned) [Example 34] | 10000 |
| CC(C)(O)c1cnc(-c2cc3ccn(CCC[C@H](COC(F)F)Oc4cn[nH]c(=O)c4C(F)(F)F)c(=O)c3cc2F)nc1 (single isomer, unassigned) [Example 35] | 20.5 |

| SMILES | EC50 [nM] |
| --- | --- |
| C[C@@H](C[C@@H](F)Cn1ccc2cc(-c3ncc(Cl)cn3)c(F)c(F)c2c1=O)Oc1cn[nH]c(=O)c1C(F)(F)F (single isomer, unassigned) [Example 43] | 0.62 |
| C[C@@H](C[C@@H](F)Cn1ccc2cc(-c3ncc(C(C)(C)O)cn3)c(F)cc2c1=O)Oc1cn[nH]c(=O)c1C(F)(F)F (single isomer, unassigned) [Example 51] | 3.28 |
| C[C@@H](C[C@@H](F)Cn1cc(F)c2cc(-c3ncc(C(C)(C)O)cn3)c(F)cc2c1=O)Oc1cn[nH]c(=O)c1C(F)(F)F (single isomer, unassigned) [Example 56] | 1.51 |
| COc1cnc(-c2cc3ncn(C[C@H](F)C[C@H](C)Oc4cn[nH]c(=O)c4C(F)(F)F)c(=O)c3cc2F)nc1 (single isomer, unassigned) [Example 57] | 38.8 |
| C[C@@H](C[C@H](F)Cn1ccc2cc(-c3ncc(C(C)(C)O)cn3)c(F)cc2c1=O)Oc1cn[nH]c(=O)c1C(F)(F)F (single isomer, unassigned) [Example 61] | 158 |
| O=c1[nH]ncc(O[C@H](CCCn2ccc3cc(-c4ncc(C(F)(F)F)cn4)c(F)cc3c2=O)COC(F)F)c1C(F)(F)F (single isomer, unassigned) [Example 119] | 16.1 |
| C[C@@H](CC(F)Cn1ccc2cc(-c3ncc(C(F)(F)F)cn3)c(F)cc2c1=O)Nc1cn[nH]c(=O)c1C(F)(F)F (stereo partly drawn) [Example 1, 7-fluoro-2-[(4S)-2-fluoro-4-[[6-oxo-5-(trifluoromethyl)-1H-pyridazin-4-yl]amino]pentyl]-6-[5-(trifluoromethyl)pyrimidin-2-yl]isoquinolin-1-one] | 1.88 |
| C[C@@H](C[C@@H](F)Cn1ccc2cc(-c3ncc(C(F)(F)F)cn3)c(F)cc2c1=O)Nc1cn[nH]c(=O)c1C(F)(F)F [Example 2] | 0.947 |
| COC(C[C@H](C)Nc1cn[nH]c(=O)c1C(F)(F)F)Cn1ccc2cc(-c3ncc(C(F)(F)F)cn3)c(F)cc2c1=O (stereo partly drawn) [Example 10, 7-fluoro-2-((4S)-2-methoxy-4-((6-oxo-5-(trifluoromethyl)-1,6-dihydropyridazin-4-yl)amino)pentyl)-6-(5-(trifluoromethyl)pyrimidin-2-yl)isoquinolin-1(2H)-one] | 30.8 |
| C[C@@H](CC(F)Cn1ccc2cc(-c3ncc(C(F)(F)F)cn3)c(F)cc2c1=O)Oc1cn[nH]c(=O)c1C(F)(F)F (stereo partly drawn) [Example 11, 7-fluoro-2-((4S)-2-fluoro-4-((6-oxo-5-(trifluoromethyl)-1,6-dihydropyridazin-4-yl)oxy)pentyl)-6-(5-(trifluoromethyl)pyrimidin-2-yl)isoquinolin-1(2H)-one] | 3.61 |
| C[C@@H](C[C@@H](F)Cn1ccc2cc(-c3ncc(C(F)(F)F)cn3)c(F)cc2c1=O)Oc1cn[nH]c(=O)c1C(F)(F)F [Example 12] | 45.1 |
| C[C@@H](C[C@H](F)Cn1ccc2cc(-c3ncc(C(F)(F)F)cn3)c(F)cc2c1=O)Oc1cn[nH]c(=O)c1C(F)(F)F [Example 13] | 1.32 |
| C[C@@H](CC(O)Cn1ccc2cc(-c3ncc(C(F)(F)F)cn3)c(F)cc2c1=O)Oc1cn[nH]c(=O)c1C(F)(F)F (some centres unmarked) [Example 16] | 1.12 |
| C[C@@H](C[C@H](O)Cn1ccc2cc(-c3ncc(C(F)(F)F)cn3)c(F)cc2c1=O)Oc1cn[nH]c(=O)c1C(F)(F)F [Example 18] | 1.81 |
| C[C@@H](CC(O)Cn1ccc2cc(-c3nc4ccccn4n3)c(F)cc2c1=O)Nc1cn[nH]c(=O)c1C(F)(F)F (stereo partly drawn) [Example 21, 6-([1,2,4]triazolo[1,5-a]pyridin-2-yl)-7-fluoro-2-((4S)-2-hydroxy-4-((6-oxo-5-(trifluoromethyl)-1,6-dihydropyridazin-4-yl)amino)pentyl)isoquinolin-1(2H)-one] | 13.3 |
| C[C@@H](C[C@@H](F)Cn1cc(F)c2cc(-c3ncc(C(F)F)c(N)n3)c(F)cc2c1=O)Nc1cn[nH]c(=O)c1C(F)(F)F [Example 24, 6-(4-amino-5-(difluoromethyl)pyrimidin-2-yl)-4,7-difluoro-2-((2R,4S)-2-fluoro-4-((6-oxo-5-(trifluoromethyl)-1,6-dihydropyridazin-4-yl)amino)pentyl)isoquinolin-1(2H)-one] | 2.39 |
